We go through one compound from patent publication US20140199420A1, “USES OF TOONA SINENSIS EXTRACT” (National Chung Hsing University, priority 2013, published 2014).

This assay relates to lactic acid bacteria. In words: Lactic acid bacteria count of Taiwanese style sausage during storage. The conditions noted are these: second group, 25% sodium lactate; at 4 and 8 weeks storage at 15° C.

Protocol: The each group of sausages prepared from example 4 was packed in equal with vacuum package and stored at 15° C. for 8 weeks. Taking the amounts of sausages from the each group in 0, 1, 2, 3, 4 and 8 weeks were separately packed into sterile bags with sterile water and homogenized with a stomacher (Lab-Blender 400, England) for 30 second to have dilutions of the each group's sausages at different storage times for further microbiological analyzing.
The dilutions of the each group's sausage at different storage times were separately poured into a petri dish, added first layer of MRS agar into the each petri dish and then mixed completely. The second layer of MRS agar was poured on the first layer of MRS agar to produce an anaerobic condition then mixed and incubated at 37° C. for 48 hours in an anaerobic jar.

With `CC(O)C(=O)[O-].[Na+]` (stereo not shown) [sodium lactate], the “lactic acid bacteria count” value turned out to be 7.52 log CFU/g.
